Reference: publication PMC3946342, “Evaluating Molecular Mechanism of Hypotensive Peptides Interactions with Renin and Angiotensin Converting Enzyme” (PLoS ONE, 2014)
“And” between values parts separate entries of the source, which are not always exact repeats. Equal entries are not always repeated. Values belong to the molecule of their own block, whether it stands above or below them. Residues, ends and D or L forms follow the SMILES beside them.

Key:
[1] = system: ACE; details: cited from earlier work
[2] = target: T1, renin (Homo sapiens, UniProt P00797); assay: Kinetics of renin inhibition (Lineweaver-Burk); format: biochemical; details: for Ki / K′m / V′max: renin; for Ki: secondary plot of Lineweaver-Burk slopes, read-out: Ki (enzyme-inhibitor dissociation constant); for Mode of renin inhibition: double reciprocal plot
T1 construct: purchased Cayman Chemicals 10006217
T1 sequence (P00797 67-406): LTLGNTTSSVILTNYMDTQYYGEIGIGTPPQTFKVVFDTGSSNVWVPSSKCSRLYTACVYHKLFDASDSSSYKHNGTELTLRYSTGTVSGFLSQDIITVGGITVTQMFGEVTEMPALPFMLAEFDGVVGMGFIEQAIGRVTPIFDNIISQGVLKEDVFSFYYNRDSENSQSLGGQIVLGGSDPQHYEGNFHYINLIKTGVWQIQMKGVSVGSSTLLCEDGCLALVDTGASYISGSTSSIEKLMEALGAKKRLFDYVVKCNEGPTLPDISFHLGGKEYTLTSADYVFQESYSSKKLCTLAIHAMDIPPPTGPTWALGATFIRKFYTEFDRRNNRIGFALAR
Protocol: (§1) Kinetics of ACE and renin inhibition was determined using a previously described method. For ACE inhibition, the substrate (FAPGG) concentrations were 0.0625, 0.125, 0.25 and 0.5 mM, while renin substrate concentrations were 1.25, 2.5, 5 and 10 µM. Peptide concentrations used during the assays are shown in Tables 1 and 2 for the kinetics of ACE and renin inhibition, respectively. The modes of ACE and renin inhibition were determined from Lineweaver-Burk plots while inhibition parameters (Vmax and Km) were calculated, respectively, as the Y and X-axis intercepts of the primary plot. Ki was calculated as the X-axis intercept of the line obtained from a secondary plot of Lineweaver-Burk line slopes versus peptide concentrations.

[3] = target: T2, Rabbit lung ACE (Oryctolagus cuniculus, UniProt P12822); assay: Kinetics of ACE inhibition (Lineweaver-Burk, FAPGG substrate); format: biochemical
T2 construct: Rabbit lung ACE (A6778, 98% purity); purchased Sigma-Aldrich A6778; host or cells: rabbit lung (tissue-derived)
T2 sequence (P12822 34-1310): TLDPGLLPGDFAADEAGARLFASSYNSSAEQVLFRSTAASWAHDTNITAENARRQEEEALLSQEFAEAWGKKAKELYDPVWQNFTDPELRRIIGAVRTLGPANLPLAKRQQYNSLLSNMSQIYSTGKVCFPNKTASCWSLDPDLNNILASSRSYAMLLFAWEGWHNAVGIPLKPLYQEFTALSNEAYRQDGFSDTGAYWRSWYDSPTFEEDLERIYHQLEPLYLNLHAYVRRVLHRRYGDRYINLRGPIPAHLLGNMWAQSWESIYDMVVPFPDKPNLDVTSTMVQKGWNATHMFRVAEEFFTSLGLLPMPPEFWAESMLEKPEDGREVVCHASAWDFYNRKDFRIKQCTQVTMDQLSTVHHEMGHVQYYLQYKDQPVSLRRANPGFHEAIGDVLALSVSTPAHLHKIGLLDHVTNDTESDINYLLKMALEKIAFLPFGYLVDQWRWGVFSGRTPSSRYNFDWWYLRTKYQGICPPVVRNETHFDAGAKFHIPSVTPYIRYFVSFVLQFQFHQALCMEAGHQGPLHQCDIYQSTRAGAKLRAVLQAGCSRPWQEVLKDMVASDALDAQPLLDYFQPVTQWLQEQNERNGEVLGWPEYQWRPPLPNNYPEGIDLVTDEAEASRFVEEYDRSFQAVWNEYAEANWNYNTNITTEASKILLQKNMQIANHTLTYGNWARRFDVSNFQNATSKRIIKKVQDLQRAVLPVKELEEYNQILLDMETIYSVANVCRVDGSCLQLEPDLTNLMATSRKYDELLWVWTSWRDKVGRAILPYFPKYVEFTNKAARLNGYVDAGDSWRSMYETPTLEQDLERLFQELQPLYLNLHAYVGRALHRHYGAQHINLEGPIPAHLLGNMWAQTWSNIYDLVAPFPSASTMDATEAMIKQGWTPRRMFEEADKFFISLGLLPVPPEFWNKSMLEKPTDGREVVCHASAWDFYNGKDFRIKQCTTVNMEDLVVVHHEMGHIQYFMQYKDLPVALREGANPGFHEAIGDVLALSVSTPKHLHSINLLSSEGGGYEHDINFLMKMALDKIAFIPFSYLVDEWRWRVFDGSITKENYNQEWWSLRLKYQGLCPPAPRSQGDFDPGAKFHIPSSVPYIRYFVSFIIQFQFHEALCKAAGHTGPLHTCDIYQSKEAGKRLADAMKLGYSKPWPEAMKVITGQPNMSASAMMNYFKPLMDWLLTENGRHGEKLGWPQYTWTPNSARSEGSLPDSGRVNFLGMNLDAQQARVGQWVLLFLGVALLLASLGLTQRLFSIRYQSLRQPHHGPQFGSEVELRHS
Protocol: as §1

[4] = system: renin; set-up: method as in earlier work; details: previously determined ref 8; read-out: IC50 for renin inhibition; cited from earlier work
[5] = target: T1, renin; assay: Intrinsic fluorescence emission of renin with peptides; format: binding
Protocol: Fluorescence emission spectra were obtained using the method of Li et al.. Briefly, 25 µL of 1 U/mL ACE (prepared in 50 mM Tris–HCl buffer, pH 7.5, containing 300 mM NaCl) or 25 µL of 250 µg/mL renin (prepared in 50 mM Tris–HCl buffer, pH 8.0, containing 100 mM NaCl) was mixed with 50 µL of peptide solution and 25 µL of the appropriate buffer to yield a 100 µL assay solution. Emission spectra were recorded at 25°C using a micro quartz cell (100 µL capacity) on a JASCO FP-6300 spectrofluorimeter (JASCO, Tokyo, Japan). ACE or renin assay solutions were excited at 280 nm and emission recorded from 290 to 450 nm. Emission spectrum of the respective buffer, peptides and enzymes was subtracted from the emission spectrum of each assay solution.

[6] = target: T1, renin; assay: Far-UV circular dichroism of renin-peptide complex; details: for Unordered / α-helix / β-sheet / β-turn: renin
Protocol: (§2) Far-UV CD spectra were obtained using a JASCO J-815 spectropolarimeter (JASCO, Tokyo, Japan) under constant nitrogen flush according to the method of Omoni and Aluko [11]. A 0.5 mm pathlength quartz cell was used for the far UV (190–240 nm) measurements and each final spectrum was the average of three consecutive scans with simultaneous subtraction of the respective buffer, peptides and enzymes spectrum. For determining the peptide-enzyme interaction spectra, 150 µL of 1 U/mL ACE (prepared in 50 mM Tris–HCl buffer, pH 7.5, containing 300 mM NaCl) or 150 µL of 250 µg/mL renin (prepared in 50 mM Tris–HCl buffer, pH 8.0, containing 100 mM NaCl) was mixed with 50 µL of a peptide solution. The far-UV CD spectra in the 200–240 nm range were analyzed for secondary structure fractions using the online DICHROWEB procedure.

[7] = target: T3, ACE (Oryctolagus cuniculus, UniProt P12822); assay: Far-UV circular dichroism of ACE-peptide complex; set-up: species or system Rabbit
T3 construct: Rabbit lung ACE (A6778, 98% purity); purchased Sigma-Aldrich A6778; host or cells: rabbit lung (tissue-derived)
T3 sequence (P12822 34-1310): T2 sequence (P12822 34-1310)
Protocol: as §2

[8] = system: ACE; set-up: method as in earlier work; details: previously determined ref 8; read-out: IC50 for ACE inhibition; cited from earlier work

Molecule: RMLGQTP
- Mode of ACE inhibition [1]: mixed-type

- Ki [2]: 285 µM
- Ki ([3]; ACE, secondary plot of Lineweaver-Burk slopes, read-out: Ki (enzyme-inhibitor dissociation constant)): 104 µM
Molecule: CC(C)C[C@H](NC(=O)[C@H](C)NC(=O)[C@@H](N)CCCNC(=N)N)C(=O)N1CCC[C@H]1C(=O)O [RALP, Arg-Ala-Leu-Pro] (H-RALP-OH)

Molecule: AWLHPGAPKVF
- Mode of ACE inhibition [1]: competitive

Molecule: FEDYVPLSCF
- Mode of ACE inhibition [1]: mixed-type

- Mode of renin inhibition [2]: uncompetitive
- K′m ([2]; LY 0.8493 mM): 2.45 µM
- V′max ([2]; LY 0.8493 mM): 17.74 FI/min
- K′m ([2]; LY 1.6986 mM): 3.11 µM
- V′max ([2]; LY 1.6986 mM): 17.63 FI/min
- Ki [2]: 2240 µM
- λmax of renin emission ([5]; 0.170 mM peptide): 326 nm
- Unordered ([6]; peptide 12.5 µg/mL): 30.37±0.23^F %
- α-helix ([6]; peptide 12.5 µg/mL): 4.63±0.12^B %
- β-sheet ([6]; peptide 12.5 µg/mL): 44.41±0.61^B %
- β-turn ([6]; peptide 12.5 µg/mL): 19.41±0.17^B %
- Unordered ([6]; peptide 25 µg/mL): 74.87% and 74.87±0.31^B %
- α-helix ([6]; peptide 25 µg/mL): 2.63±0.32^C %
- β-sheet ([6]; peptide 25 µg/mL): 4.33±0.32^E %
- β-turn ([6]; peptide 25 µg/mL): 19.73±1.45^B %
Molecule: CC(C)C[C@H](N)C(=O)N[C@@H](Cc1ccc(O)cc1)C(=O)O [LY, Leu-Tyr]
- IC50 [4]: 1870 µM

- Mode of renin inhibition [2]: non-competitive
- K′m ([2]; TF 0.9387 mM): 4.78 µM
- V′max ([2]; TF 0.9387 mM): 25.89 FI/min
- K′m ([2]; TF 3.7551 mM): 4.41 µM
- V′max ([2]; TF 3.7551 mM): 17.20 FI/min
- Unordered ([7]; peptide 12.5 µg/mL): 22.31±2.25^E %
- α-helix ([7]; peptide 12.5 µg/mL): 16.55±0.49^B %
- β-sheet ([7]; peptide 12.5 µg/mL): 41.67±2.17% and 41.67±2.17^A %
- β-turn ([7]; peptide 12.5 µg/mL): 16.97±0.31^C %
- Unordered ([7]; peptide 25 µg/mL): 39.9±1.56^B %
- α-helix ([7]; peptide 25 µg/mL): 13.43±0.72^C %
- β-sheet ([7]; peptide 25 µg/mL): 29.17±0.86% and 29.17±0.86^B %
- β-turn ([7]; peptide 25 µg/mL): 17.33±0.64^C %
- λmax of renin emission ([5]; 0.047 mM peptide, 328.5 nm without peptide): 326 nm
- λmax of renin emission ([5]; 0.094 mM peptide, 328.5 nm without peptide): 327 nm
- Decrease in FI ([5]; renin paragraph (printed ACE FI), LY at 0.170 mM, concentration for TF, RALP not given): 47%
- K′m ([3]; ACE, TF 0.1887 mM): 1.0088 mM
- V′max ([3]; ACE, TF 0.1887 mM): 0.0185 ΔA/min
- K′m ([3]; ACE, TF 0.7510 mM): 0.5546 mM
- V′max ([3]; ACE, TF 0.7510 mM): 0.0097 ΔA/min
- Mode of ACE inhibition ([3]; Lineweaver-Burk plots): mixed-type
- Factor of increase of unordered fraction in renin ([6]; 0.094 mM peptide): 2.25
- Factor of reduction of β-sheet fraction in renin ([6]; 0.094 mM peptide): ~6
- Unordered ([6]; peptide 12.5 µg/mL): 28.91±0.25^G %
- α-helix ([6]; peptide 12.5 µg/mL): 2.91±0.26^C %
- β-sheet ([6]; peptide 12.5 µg/mL): 46.97±0.31^A %
- β-turn ([6]; peptide 12.5 µg/mL): 21.37±0.06^A %
- Unordered ([6]; peptide 25 µg/mL): 72.25±0.21^C %
- α-helix ([6]; peptide 25 µg/mL): 0.95±0.07^D %
- β-sheet ([6]; peptide 25 µg/mL): 7.91±0.85^D %
- β-turn ([6]; peptide 25 µg/mL): 18.95±0.21^B %
Molecule: C[C@@H](O)[C@H](N)C(=O)N[C@@H](Cc1ccccc1)C(=O)O [TF, Thr-Phe] (H-Thr-Phe-OH; N-terminus and C-terminus assumed)
- IC50 [4]: 3060 µM
- IC50 [8]: 810 µM

Molecule: FNVPLYE
- Mode of ACE inhibition [1]: mixed-type
